According to ChEMBL document CHEMBL1201862, “PubChem BioAssay data set” (2004):
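Protocol summary: plate cells (96-well), add compound at 5 concentrations, incubate 48 h, interpolate endpoints linearly. GI50: concentration for 50% inhibition of growth.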 Active and inactive are the calls of the source. No stated cut-off is given here; in the data, active = GI50 up to about 1.1 µM and inactive = higher.

Experiments:
Test in all cases: NCI-60 cell line screen, 48 h
IGROV-1 = test system: IGROV-1
M14 = test system: M14
UACC-257 = test system: UACC-257
HOP-92 = test system: HOP-92
NCI-H226 = test system: NCI-H226
SNB-75 = test system: SNB-75
KM12 = test system: KM12
SW-620 = test system: SW-620
HCT-15 = test system: HCT-15
MOLT-4 = test system: MOLT-4
SK-OV-3 = test system: SK-OV-3
TK-10 = test system: TK-10
A498 = test system: A498
OVCAR-3 = test system: OVCAR-3
OVCAR-8 = test system: OVCAR-8
LOX IMVI = test system: LOX IMVI
U-251 = test system: U-251
CAKI-1 = test system: CAKI-1

Row | SMILES | GI50 (IGROV-1) | GI50 (M14) | GI50 (UACC-257) | GI50 (HOP-92) | GI50 (NCI-H226) | GI50 (SNB-75) | GI50 (KM12) | GI50 (SW-620) | GI50 (HCT-15) [µM] | GI50 (MOLT-4) | GI50 (SK-OV-3) | GI50 (TK-10) | GI50 (A498) | GI50 (OVCAR-3) | GI50 (OVCAR-8) | GI50 (LOX IMVI) | GI50 (U-251) | GI50 (CAKI-1)
1 | CN(C)CCCNc1ccc2ncn3c4ccccc4c(=O)c1c23 | 7.66 µM (inactive) | 9.66 µM (inactive) | 14.6 µM (inactive) | 5.9 µM (inactive) | 7.21 µM (inactive) | 10.5 µM (inactive) | 5.87 µM (inactive) | 4.71 µM (inactive) | 8.53 | 2.91 µM (inactive) | 8.59 µM (inactive) | 14.8 µM (inactive) | > 10 µM (inactive) | 16 µM (inactive) | 4.9 µM (inactive) | 3.51 µM (inactive) | 11.4 µM (inactive) | –
2 | CC1=C(O)/C(=C/C(C)CCC/C(C)=C/C=C/C(C)CCCc2ccoc2)OC1=O (configuration not stated) | – | 36 µM (inactive) | 21.7 µM (inactive) | – | 23.2 µM (inactive) | 25.2 µM (inactive) | 34.4 µM (inactive) | 33.3 µM (inactive) | – | – | – | 20.9 µM (inactive) | – | – | 34.4 µM (inactive) | 34.2 µM (inactive) | 37.8 µM (inactive) | 45.5 µM (inactive)
3 | CC(C)(C)/N=C\N1CCC(C(c2ccccc2)c2ccccc2)CC1 | > 100 µM (inactive) | – | 37.3 µM (inactive) | 31.7 µM (inactive) | – | 21.9 µM (inactive) | 65.8 µM (inactive) | > 100 µM (inactive) | 55.3 | – | – | 40.6 µM (inactive) | 38.3 µM (inactive) | 80.5 µM (inactive) | > 100 µM (inactive) | 23.8 µM (inactive) | 60.4 µM (inactive) | 42.4 µM (inactive)
4 | Cc1ccc(/N=N/c2c(-c3ccccc3)nn(C(=O)CC(=O)Nc3ccc(Cl)cc3)c2-c2ccccc2)cc1 | > 100 µM (inactive) | 65.2 µM (inactive) | > 100 µM (inactive) | 23.9 µM (inactive) | 36.6 µM (inactive) | 20.6 µM (inactive) | 38.3 µM (inactive) | 90.8 µM (inactive) | 56.4 | 21.3 µM (inactive) | > 100 µM (inactive) | – | 31.8 µM (inactive) | 26.2 µM (inactive) | 32.1 µM (inactive) | 46.7 µM (inactive) | 40 µM (inactive) | 55 µM (inactive)
5 | O=C(c1ccccc1)c1cn(/N=C\c2ccccc2)c(=O)nc1-c1ccccc1 | – | > 100 µM (inactive) | > 100 µM (inactive) | 92.9 µM (inactive) | > 100 µM (inactive) | > 100 µM (inactive) | > 100 µM (inactive) | > 100 µM (inactive) | > 100 | > 100 µM (inactive) | > 100 µM (inactive) | > 100 µM (inactive) | > 100 µM (inactive) | > 100 µM (inactive) | > 100 µM (inactive) | > 100 µM (inactive) | > 100 µM (inactive) | –
6 | CN(C)c1n/c(=N/c2ccc3c(c2)OCO3)ss1 | > 100 µM (inactive) | > 100 µM (inactive) | > 100 µM (inactive) | 56.5 µM (inactive) | > 100 µM (inactive) | 9.71 µM (inactive) | 51.5 µM (inactive) | 74 µM (inactive) | 40.4 | 22.4 µM (inactive) | > 100 µM (inactive) | > 100 µM (inactive) | 43.9 µM (inactive) | – | 72.1 µM (inactive) | 64 µM (inactive) | 37.6 µM (inactive) | 97.7 µM (inactive)
7 | NC(=O)C12CCC1C1CCCCC12N1CCOCC1 (configuration not stated) | > 100 µM (inactive) | > 100 µM (inactive) | – | > 100 µM (inactive) | – | > 100 µM (inactive) | > 100 µM (inactive) | > 100 µM (inactive) | > 100 | > 100 µM (inactive) | > 100 µM (inactive) | > 100 µM (inactive) | > 100 µM (inactive) | > 100 µM (inactive) | > 100 µM (inactive) | > 100 µM (inactive) | > 100 µM (inactive) | > 100 µM (inactive)
8 | NS(=O)(=O)c1ccc(NC(=O)Cc2nc3ccccc3s2)cc1 | 15.7 µM (inactive) | 15.7 µM (inactive) | 15.8 µM (inactive) | 16.2 µM (inactive) | 17.9 µM (inactive) | 16.4 µM (inactive) | 16.3 µM (inactive) | 17.1 µM (inactive) | 17.7 | 20.1 µM (inactive) | 25.7 µM (inactive) | 24.1 µM (inactive) | 21.1 µM (inactive) | 16.8 µM (inactive) | 20.4 µM (inactive) | – | 15.2 µM (inactive) | 16.5 µM (inactive)
9 | CC1(C)CC2(S(=O)(=O)c3ccccc3)ON1CC2S(=O)(=O)c1ccccc1 (configuration not stated) | > 100 µM (inactive) | > 100 µM (inactive) | > 100 µM (inactive) | – | > 100 µM (inactive) | > 100 µM (inactive) | > 100 µM (inactive) | > 100 µM (inactive) | > 100 | 30.8 µM (inactive) | > 100 µM (inactive) | > 100 µM (inactive) | – | > 100 µM (inactive) | 74.1 µM (inactive) | 87.1 µM (inactive) | > 100 µM (inactive) | 77.3 µM (inactive)
10 | CCCCCCCCCCCCCCC(C)CCC(=O)O (configuration not stated) | > 100 µM (inactive) | – | > 100 µM (inactive) | 62.5 µM (inactive) | > 100 µM (inactive) | > 100 µM (inactive) | 49.8 µM (inactive) | > 100 µM (inactive) | – | – | – | > 100 µM (inactive) | > 100 µM (inactive) | 68.7 µM (inactive) | > 100 µM (inactive) | 31.6 µM (inactive) | 52.5 µM (inactive) | > 100 µM (inactive)
11 | Cc1ccc(NC(=O)CC2C(=O)Nc3ccccc3[S+]2[O-])cc1C (configuration not stated) | > 100 µM (inactive) | > 100 µM (inactive) | > 100 µM (inactive) | 26 µM (inactive) | > 100 µM (inactive) | > 100 µM (inactive) | – | 66.4 µM (inactive) | > 100 | 25.5 µM (inactive) | – | > 100 µM (inactive) | > 100 µM (inactive) | 40.6 µM (inactive) | 34 µM (inactive) | 48.6 µM (inactive) | 44.3 µM (inactive) | > 100 µM (inactive)
12 | O=c1c2ccccc2c(=O)c2c1cc(Cl)c1[nH]c3c([nH]c12)c(Cl)cc1c(=O)c2ccccc2c(=O)c13 | > 100 µM (inactive) | > 100 µM (inactive) | > 100 µM (inactive) | – | > 100 µM (inactive) | > 100 µM (inactive) | > 100 µM (inactive) | > 100 µM (inactive) | > 100 | > 100 µM (inactive) | > 100 µM (inactive) | > 100 µM (inactive) | > 100 µM (inactive) | > 100 µM (inactive) | > 100 µM (inactive) | – | > 100 µM (inactive) | > 100 µM (inactive)
13 | O/N=C1/C(=C/c2ccc3c(c2)OCO3)CCCC1C(NO)c1ccc2c(c1)OCO2 (configuration not stated) | 28.2 µM (inactive) | 19.5 µM (inactive) | 17.8 µM (inactive) | – | – | 27.2 µM (inactive) | 22.7 µM (inactive) | 30.8 µM (inactive) | 32 | 16.9 µM (inactive) | 48.2 µM (inactive) | 26.1 µM (inactive) | 26.5 µM (inactive) | 14.6 µM (inactive) | 24.6 µM (inactive) | – | 20.8 µM (inactive) | 28.6 µM (inactive)
